Reference: patent US12590108B2, “Boracic acid compound” (Phaeno Therapeutics Co., Ltd, priority 2020, dated 2026)

Assays:
[1] = test system: Klebsiella pneumoniae ATCC BAA-1705; test: Mouse thigh muscle infection model, bacterial load; assay type: in vivo, CD-1 female mice; details: endpoint 12 h
Protocol: (§1) 36 CD-1 female mice were divided into 12 cages with 3 […] in each cage. The day of infection was denoted as day 0.
(§2) Immunosuppressant cyclophosphamide at 150 mg/kg was injected intraperitoneally on day −4 and immunosuppressant cyclophosphamide at 100 mg/kg was injected intraperitoneally on day −1 to induce immunodeficient mice.
On day −1, the strain Klebsiella pneumoniae ATCC BAA-1705 was resuscitated on an MHA plate. Resuscitated colonies were picked and dissolved in sterile physiological saline to prepare a bacterial solution with a concentration of 5.6E+07 CFU/mL for thigh muscle infection in mice. The initial time of infection was denoted as 0 h, and 100 μL of the bacterial solution was injected into each mouse at the thigh muscle at 0 h, that is, the inoculation amount was 5.6E+06 CFU/mouse. 2 h after infection, dosing was performed according to the experimental scheme. The specific experimental scheme was as follows (see Table 4): • (1) 2 h after infection: for the 1st cage of mice, at the endpoint, thigh muscle tissue was taken and placed in 10 mL of sterile physiological saline, the tissue was homogenized by a homogenizer, and the homogenate was diluted in a gradient and spotted in a plate, with two replicates for each mouse. • (2) 2 h after infection: the 2nd to 12th cages were respectively treated at 10 mL/kg by volume according to the body weight of the mice, the 2nd cage of mice were given a vehicle by intravenous injection every 2 h, and the endpoint was 12 h; the 3rd cage of mice were given 100 mg/kg of meropenem by intravenous injection every 2 h, and the endpoint was 12 h; the 4th cage of mice were given 100 mg/kg of meropenem and 20 mg/kg of QPX7728 by intravenous injection every 2 h, and the endpoint was 12 h; the 5th cage of mice were given 100 mg/kg of meropenem and 100 mg/kg of compound 15 by intravenous injection every 2 h, and the endpoint was 12 h; the 6th cage of mice were given 100 mg/kg of meropenem and 20 mg/kg of compound 15 by intravenous injection every 2 h, and the endpoint was 12 h; the 7th cage of mice were given 100 mg/kg of meropenem and 4 mg/kg of compound 15 by intravenous injection every 2 h, and the endpoint was 12 h; the 8th cage of mice were given 100 mg/kg of cefepime by intravenous injection every 2 h, and the endpoint was 12 h; the 9th cage of mice were given 100 mg/kg of cefepime and 20 mg/kg of QPX7728 by intravenous injection every 2 h, and the endpoint was 12 h; the 10th cage of mice were given 100 mg/kg of cefepime and 100 mg/kg of compound 15 by intravenous injection every 2 h, and the endpoint was 12 h; the 11th cage of mice were given 100 mg/kg of cefepime and 20 mg/kg of compound 15 by intravenous injection every 2 h, and the endpoint was 12 h; and the 12th cage of mice were given 100 mg/kg of cefepime and 4 mg/kg of compound 15 by intravenous injection every 2 h, and the endpoint was 12 h. At the endpoint of 12 h, thigh muscle tissue was taken and placed in 10 mL of sterile physiological saline, the tissue was homogenized by a homogenizer, and the homogenate was diluted in a gradient and spotted in a plate, with two replicates for each mouse. The bacterial load in the thigh muscle tissue of the mice was counted, and the experiment was summarized as follows (see Table 5): […]

[2] = test system: Klebsiella pneumoniae ATCC BAA-1705; test: Mouse lung infection model, bacterial load; assay type: in vivo, CD-1 female mice; details: endpoint 12 h
Protocol: as §1, §2
On day −1, the strain Klebsiella pneumoniae ATCC BAA-1705 was resuscitated on an MHA plate. Resuscitated colonies were picked and dissolved in sterile physiological saline to prepare a bacterial solution with a concentration of 2.75E+08 CFU/mL for lung infection by nasal drip. The initial time of infection was denoted as 0 h, and 50 μL of the bacterial solution was injected into each mouse by nasal drip at 0 h, that is, the inoculation amount was 1.38E+07 CFU/mouse. 2 h after infection, dosing was performed according to the experimental scheme. The specific experimental scheme was as follows (see Table 6): • (1) 2 h after infection: for the 1st cage of mice, at the endpoint, lung tissue was taken and placed in 10 mL of sterile physiological saline, the tissue was homogenized by a homogenizer, and the homogenate was diluted in a gradient and spotted in a plate, with two replicates for each mouse. • (2) 2 h after infection: the 2nd to 12th cages were respectively treated at 10 mL/kg by volume according to the body weight of the mice, the 2nd cage of mice were given a vehicle by intravenous injection every 2 h, and the endpoint was 12 h; the 3rd cage of mice were given 100 mg/kg of meropenem by intravenous injection every 2 h, and the endpoint was 12 h; the 4th cage of mice were given 100 mg/kg of meropenem and 20 mg/kg of QPX7728 by intravenous injection every 2 h, and the endpoint was 12 h; the 5th cage of mice were given 100 mg/kg of meropenem and 100 mg/kg of compound 15 by intravenous injection every 2 h, and the endpoint was 12 h; the 6th cage of mice were given 100 mg/kg of meropenem and 20 mg/kg of compound 15 by intravenous injection every 2 h, and the endpoint was 12 h; the 7th cage of mice were given 100 mg/kg of meropenem and 4 mg/kg of compound 15 by intravenous injection every 2 h, and the endpoint was 12 h; the 8th cage of mice were given 100 mg/kg of cefepime by intravenous injection every 2 h, and the endpoint was 12 h; the 9th cage of mice were given 100 mg/kg of cefepime and 20 mg/kg of QPX7728 by intravenous injection every 2 h, and the endpoint was 12 h; the 10th cage of mice were given 100 mg/kg of cefepime and 100 mg/kg of compound 15 by intravenous injection every 2 h, and the endpoint was 12 h: the 11th cage of mice were given 100 mg/kg of cefepime and 20 mg/kg of compound 15 by intravenous injection every 2 h, and the endpoint was 12 h; and the 12th cage of mice were given 100 mg/kg of cefepime and 4 mg/kg of compound 15 by intravenous injection every 2 h, and the endpoint was 12 h. At the endpoint, lung tissue was taken and placed in 10 mL of sterile physiological saline, the tissue was homogenized by a homogenizer, and the homogenate was diluted in a gradient and spotted in a plate, with two replicates for each mouse. The bacterial load in the lung tissue of the mice was counted, and the experiment was summarized as follows (see Table 7): […]

[3] = cefepime 100 mg/kg + inhibitor 4 mg/kg i.v. q2h
[4] = cefepime 100 mg/kg + inhibitor 20 mg/kg i.v. q2h
[5] = cefepime 100 mg/kg + inhibitor 100 mg/kg i.v. q2h
[6] = meropenem 100 mg/kg + inhibitor 4 mg/kg i.v. q2h
[7] = meropenem 100 mg/kg + inhibitor 20 mg/kg i.v. q2h
[8] = meropenem 100 mg/kg + inhibitor 100 mg/kg i.v. q2h
[9] = antibiotic alone 100 mg/kg i.v. q2h

Row | SMILES | Average CFU in mice (thigh muscle tissue) [1, 3] | Average CFU in mice (thigh muscle tissue) [1, 4] | Average CFU in mice (thigh muscle tissue) [1, 5] | Average CFU in mice (thigh muscle tissue) [1, 6] | Average CFU in mice (thigh muscle tissue) [1, 7] | Average CFU in mice (thigh muscle tissue) [1, 8] | Average CFU in mice (lung tissue) [2, 3] | Average CFU in mice (lung tissue) [2, 4] | Average CFU in mice (lung tissue) [2, 5] | Average CFU in mice (lung tissue) [2, 6] | Average CFU in mice (lung tissue) [2, 7] | Average CFU in mice (lung tissue) [2, 8] | Average CFU in mice (thigh muscle tissue) [1, 9] | Average CFU in mice (lung tissue) [2, 9]
1 | CCOc1ccc2c(c1C(=O)O)O[B-](O)(O)CO2 [Compound 15] | 5.68E+06 CFU/mouse | 2.06E+06 CFU/mouse | 1.24E+06 CFU/mouse | 1.65E+07 CFU/mouse | 4.08E+06 CFU/mouse | 2.02E+06 CFU/mouse | 2.38E+06 CFU/mouse | 3.73E+05 CFU/mouse | 1.84E+05 CFU/mouse | 6.83E+07 CFU/mouse | 6.04E+06 CFU/mouse | 7.67E+05 CFU/mouse | – | –
2 | C[C@@H](O)[C@H]1C(=O)N2C(C(=O)O)=C(S[C@@H]3CN[C@H](C(=O)N(C)C)C3)[C@H](C)[C@H]12 [Meropenem, meropenem, reference compound] | – | – | – | – | – | – | – | – | – | – | – | – | 4.83E+08 CFU/mouse | 2.73E+08 CFU/mouse
